From patent US20220339122A1, “METHODS FOR THE TREATMENT OF DISEASES ASSOCIATED WITH DYSREGULATED ACTIVATION AND RECRUITMENT OF NEUTROPHILS” (Chang Gung University, priority 2021, published 2022)

Assays:
Type in all cases: biochemical
Settings in all cases: 1-10 μM bletinib or 0.1-3 μM PP2; 125 μM ATP; concentration-dependent
Fgr = Fgr (Homo sapiens, UniProt P09769); test: Cell-free ADP-Glo kinase assay, Fgr
Procedure: (§1) The kinase activity of SFKs was assessed using an ADP-Glo kinase assay kit (Promega, Fitchburg, USA) according to manufacturer instructions. […] The ADP-Glo reagent was used to end the kinase reaction and remove the remnant ATP; next, the kinase, which converted ADP to ATP, detection reagent was added and incubated for 30 min. Luciferin/luciferase luminescence was determined on an Infinite 200 Pro (Tecan, Switzerland).

Lyn = Lyn (Homo sapiens, UniProt P07948); test: Cell-free ADP-Glo kinase assay, Lyn
Procedure: as §1

Src = Src (Homo sapiens, UniProt P12931); test: Cell-free ADP-Glo kinase assay, Src
Procedure: as §1

Src, sequence (P12931 whole entry): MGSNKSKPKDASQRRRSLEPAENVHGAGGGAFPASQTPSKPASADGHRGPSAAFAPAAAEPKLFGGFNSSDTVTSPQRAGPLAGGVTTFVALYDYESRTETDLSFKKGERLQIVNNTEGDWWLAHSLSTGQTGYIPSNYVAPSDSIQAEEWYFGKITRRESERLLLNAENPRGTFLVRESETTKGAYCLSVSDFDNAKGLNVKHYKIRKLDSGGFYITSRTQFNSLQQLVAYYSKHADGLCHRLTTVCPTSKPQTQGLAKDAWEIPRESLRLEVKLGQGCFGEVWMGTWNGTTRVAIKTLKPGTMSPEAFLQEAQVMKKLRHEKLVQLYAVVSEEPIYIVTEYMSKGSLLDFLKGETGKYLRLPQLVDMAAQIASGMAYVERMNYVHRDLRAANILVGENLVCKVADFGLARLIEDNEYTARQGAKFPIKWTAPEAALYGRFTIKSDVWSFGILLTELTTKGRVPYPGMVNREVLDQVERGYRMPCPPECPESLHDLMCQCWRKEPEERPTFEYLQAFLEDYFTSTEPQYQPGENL
Fgr, sequence (P09769 whole entry): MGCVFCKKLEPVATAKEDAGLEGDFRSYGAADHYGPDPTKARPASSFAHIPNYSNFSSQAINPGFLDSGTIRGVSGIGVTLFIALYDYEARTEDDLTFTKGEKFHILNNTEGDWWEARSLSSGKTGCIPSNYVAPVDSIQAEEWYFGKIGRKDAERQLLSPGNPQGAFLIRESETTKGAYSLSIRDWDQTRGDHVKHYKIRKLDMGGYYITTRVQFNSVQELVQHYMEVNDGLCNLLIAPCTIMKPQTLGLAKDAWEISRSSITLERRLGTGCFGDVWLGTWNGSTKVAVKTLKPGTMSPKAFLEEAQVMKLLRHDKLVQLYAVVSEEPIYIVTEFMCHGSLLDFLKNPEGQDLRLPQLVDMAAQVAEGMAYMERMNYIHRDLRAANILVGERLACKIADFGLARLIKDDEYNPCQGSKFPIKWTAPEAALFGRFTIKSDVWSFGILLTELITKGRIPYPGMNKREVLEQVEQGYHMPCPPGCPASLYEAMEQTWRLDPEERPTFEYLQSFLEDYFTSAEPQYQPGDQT
Lyn, sequence (P07948 whole entry): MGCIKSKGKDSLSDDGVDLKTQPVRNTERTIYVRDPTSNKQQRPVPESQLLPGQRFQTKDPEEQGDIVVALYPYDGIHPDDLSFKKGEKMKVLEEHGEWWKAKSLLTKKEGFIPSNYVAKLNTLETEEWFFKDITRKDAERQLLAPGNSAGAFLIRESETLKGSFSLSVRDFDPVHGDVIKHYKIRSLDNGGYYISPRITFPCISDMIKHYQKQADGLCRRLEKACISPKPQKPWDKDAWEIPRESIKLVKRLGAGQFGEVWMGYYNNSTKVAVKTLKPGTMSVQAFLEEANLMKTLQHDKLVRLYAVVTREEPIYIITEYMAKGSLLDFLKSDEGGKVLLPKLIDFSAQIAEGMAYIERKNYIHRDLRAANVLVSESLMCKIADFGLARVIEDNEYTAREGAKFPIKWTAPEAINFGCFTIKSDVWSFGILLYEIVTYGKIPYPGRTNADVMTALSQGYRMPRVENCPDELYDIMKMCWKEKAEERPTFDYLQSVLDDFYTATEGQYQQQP

CC(C)(C)n1nc(-c2ccc(Cl)cc2)c2c(N)ncnc21 [PP2, reference compound]
inhibited: kinase activity of Fgr (Fgr) | kinase activity of Lyn (Lyn) | kinase activity of Src (Src)
